Where no end group is shown, it is not given here.
Tests used:
[1] = Zinc solubility of peptide-Zn complexes during simulated gastrointestinal digestion; details: intestinal phase, from 120 to 240 min; PAR method
[2] = Zn-chelating ability (4-(2-Pyridinazo)-resorcinol colorimetric method); type: physicochemical; details: 350 μg sample, zinc sulfate 0.25 mmol/L, HEPES-KOH, DTT, 37 °C, 12 min; PAR method, 500 nm; reduction of zinc ions per mass of sample; mean ± SD, n at least 3
Description: NOBAH peptides (350 μg), 0.5 mL zinc sulfate solution (0.25 mmol/L), 0.5 mL DTT (8 mmol/L), 1 mL HEPES-KOH buffer (100 μmol/L), and 8 mL dH2O were mixed thoroughly. After stirring at 37 °C and 175 r/min for 12 min, 1 mL of reaction solution was sucked out and used for zinc concentration determination using the 4-(2-Pyridinazo)-resorcinol method. The standard regression curve of zinc concentration (x, μg/mL) with the absorbance at 500 nm (y) was y = 0.0901n(x) + 0.1012, R^2 = 0.9802 [27]. The zinc chelation rate of the sample was defined as the reduction of zinc ions in the reaction solution per mass of the sample (mg/g).
Amino acid sequence identification was conducted on a Q Exactive hybrid quadrupole orbitrap mass spectrometer (Thermo Fisher, Bremen, Germany) according to the description of Li et al.. Peak-Studio-7.5-De-Novo™ software (Bioinformatics Solutions, Inc., Waterloo, ON, Canada) was employed to analyze data from the mass spectrometer. The National Center for Biotechnology Information Database (Bethesda, MD, USA) was used for the verification of the obtained sequences. The PAR colorimetric method was employed to measure the Zn-chelating ability of the obtained sequences. Potential antihypertensive effects were predicted using the database AHTPDB [29]. […] Moreover, the physicochemical characteristics of the obtained peptides were analyzed with the database AHTPDB.

ACE [3] = target: T1, ACE (Oryctolagus cuniculus, UniProt P12822); assay: ACE inhibition capacity (HHL substrate, hippuric acid at 228 nm); type: biochemical; details: synthesized peptide; ACE 25 mU, HHL 8.3 mmol/L, 37 °C, 60 min, absorbance 228 nm; from regression of inhibition vs concentration; n at least 3; read-out: ACE-inhibitory activity (IC50)
T1 construct: purchased Sigma (St. Louis, MO, USA)
T1 sequence (P12822 34-1310): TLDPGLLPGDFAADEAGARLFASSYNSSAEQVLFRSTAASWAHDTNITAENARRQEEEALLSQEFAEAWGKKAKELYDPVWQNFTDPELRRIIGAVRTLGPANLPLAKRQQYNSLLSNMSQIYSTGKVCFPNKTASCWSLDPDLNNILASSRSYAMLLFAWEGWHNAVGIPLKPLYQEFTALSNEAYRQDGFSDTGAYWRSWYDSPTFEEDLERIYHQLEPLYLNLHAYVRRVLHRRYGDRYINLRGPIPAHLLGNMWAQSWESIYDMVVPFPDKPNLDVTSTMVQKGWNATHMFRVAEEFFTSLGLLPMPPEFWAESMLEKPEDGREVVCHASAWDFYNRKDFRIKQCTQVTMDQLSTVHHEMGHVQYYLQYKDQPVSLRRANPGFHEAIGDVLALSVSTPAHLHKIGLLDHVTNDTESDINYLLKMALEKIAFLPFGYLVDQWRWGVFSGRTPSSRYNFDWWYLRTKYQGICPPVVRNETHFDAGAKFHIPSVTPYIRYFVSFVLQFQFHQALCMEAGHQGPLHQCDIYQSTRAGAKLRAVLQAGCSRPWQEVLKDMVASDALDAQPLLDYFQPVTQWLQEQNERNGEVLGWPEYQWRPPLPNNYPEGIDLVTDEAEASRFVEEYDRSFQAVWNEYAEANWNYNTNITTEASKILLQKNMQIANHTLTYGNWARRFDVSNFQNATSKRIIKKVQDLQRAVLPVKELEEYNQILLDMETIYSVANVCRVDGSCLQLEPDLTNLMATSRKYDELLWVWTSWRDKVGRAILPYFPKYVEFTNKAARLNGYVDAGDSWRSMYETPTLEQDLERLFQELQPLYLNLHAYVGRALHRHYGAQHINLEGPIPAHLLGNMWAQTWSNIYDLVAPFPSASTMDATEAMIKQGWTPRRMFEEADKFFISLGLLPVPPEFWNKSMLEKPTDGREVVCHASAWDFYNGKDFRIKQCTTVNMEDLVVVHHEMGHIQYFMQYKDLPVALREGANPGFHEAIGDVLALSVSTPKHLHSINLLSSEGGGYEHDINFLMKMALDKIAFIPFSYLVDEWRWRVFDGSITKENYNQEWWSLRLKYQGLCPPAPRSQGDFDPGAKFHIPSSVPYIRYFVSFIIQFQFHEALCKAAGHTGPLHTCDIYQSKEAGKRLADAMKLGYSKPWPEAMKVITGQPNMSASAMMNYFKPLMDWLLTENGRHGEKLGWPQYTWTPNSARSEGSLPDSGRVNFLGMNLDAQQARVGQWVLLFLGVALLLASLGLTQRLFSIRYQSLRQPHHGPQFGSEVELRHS
Description: Briefly, ACE (25 mU) was pre-incubated at 37 °C for 10 min. Then, ACE (75 µL), 225 µL of HHL (8.3 mmol/L), and peptide solution (75 µL) were mixed and stirred at 75 r/min and 37 °C for 60 min [28]. The reaction was stopped through the addition of 0.375 mL of HCl (1 mol/L). Next, 2.1 mL of ethyl acetate was added to extract the produced hippuric acid. After centrifugation at 14,000× g for 150 s, 1 mL of the upper solution (ethyl acetate extraction) was transferred into a glass test tube and heated at 120 °C for 32 min. Then, deionized water (1 mL) was added and determined at 228 nm. The control group was subjected to the same procedures but without samples. The inhibition ability of the samples toward ACE was defined as the percentage of the difference in absorbance at 228 nm between the sample and control compared to the absorbance of the control at 228 nm. The concentration of peptides needed to inhibit half of ACE activity was defined as IC50.

ACE [4] = tested on: ACE; design: method as in 2 sources, one per row (each row's own in cited_ref): ref [24] = [24]; PMID 32220144; doi:10.1111/1750-3841.15115; 24. Zheng Y. Wang X. Zhuang Y. Li Y. Shi P.Q. Tian H. Li X.T. Chen X. Isolation of novel ACE-inhibitory peptide from naked oat globulin hydrolysates in silico approach: Molecular docking, in vivo anti ||| ref [4],[35] = [4]; doi:10.1016/j.lwt.2022.114008; 4. Renjuan L. Xiuli Z. Liping S. Yongliang Z. Identification, in silico screening, and molecular docking of novel ACE inhibitory peptides isolated from the edible symbiot Boletus griseus-Hypomyces chr || [35]; doi:10.1016/j.lwt.2022.113196; 35. Wei G. Zhao Q. Wang D. Fan Y. Shi Y. Huang A. Novel ACE inhibitory, antioxidant and α-glucosidase inhibitory peptides identified from fermented rubing cheese through peptidomic and molecular docki; details: literature comparison; ref [4],[35]; read-out: ACE inhibition IC50; cited from earlier work

Row | IC50 (ACE [3]) [µM] | Compound | IC50 (ACE [4]) [µM] | also measured
1 | – | O=C([O-])[C@H](O)[C@@H](O)[C@H](O)[C@H](O)CO.O=C([O-])[C@H](O)[C@@H](O)[C@H](O)[C@H](O)CO.[Zn+2] [zinc gluconate, Zinc gluconate] | – | Zinc solubility compared with zinc sulfate [1]: higher zinc solubility than that of zinc sulfate
2 | – | GTTGGMGT [peptide identified in NOBAH-6-D] | – | Zinc chelating capacity [2]: 3.36 ± 0.16 e mg/g
3 | 322 | GYHGH [GYHGH, Gly-Tyr-His-Gly-His] | – | –
4 | – | LFRPE | 11.3 | –
5 | – | QPHQPL [peptide identified in rubing cheese] | 464 | –
6 | 243 | QYVPF [QYVPF, Gln-Tyr-Val-Pro-Phe] | – | –
